Reference: patent US8293700B2, “Anti-bacterial composition especially for controlling gram-negative bacteria, comprising a peptide and an advantageously hydrophobic anti-bacterial agent” (Cellectis, priority 2003, dated 2012)
Where no end group is shown, it is not given here.

Columns and labels:
eukaryotic cells = details: cited from earlier work; for Localization in the eukaryotic cells: chemically coupled to the peroxydase protein or IgG, WO 01/64738
[1] = tested on: Gram-negative bacterium (E. coli, P. aeruginosa); experiment: Classification of DPVs by internalization level in the two bacterial strains; assay type: cell-based; details: for Classification of DPVs: level of internalization: DPV-Bodipy conjugates, accumulation in bacterial cytoplasm, E. coli and P. aeruginosa; for Internalization properties in prokaryotic cells (Gram-negative bacteria): compared with the eukaryotic cell
Description: (§1) The bacteria in an exponential phase of culture were centrifuged and washed three times with the 10 mM, pH7.4 sodium phosphate buffer (NAPB buffer). The bacterial concentration was adjusted to 1×10^6 cfu/ml (colony-forming units) in the NAPB buffer. 50 μl of the bacterial suspension was deposited on a poly-L-Lysine slide. After 30 minutes incubation at 37° C. in a humid chamber, the bacteria immobilized on the slide were rinsed three times with the NAPB buffer. A 50 μl solution of DPV-Bodipy or DPV-TMR conjugate or control product was, deposited on the bacteria. After incubation for 30 minutes at 37° C. in a humidity chamber and away from light, the slides were rinsed three times with the NAPB buffer. The bacteria may be fixed on the slide by incubating 20 minutes at 37° C., away from light. A drop of 50% PBS/Glycerol was deposited on the slide and covered by a cover glass. After sealing the cover glass on the slide, bacterial fluorescence was observed under a Leica epifluorescence optical microscope (40× or 63× immersion lens). The images were taken with a digital Nikon Coolpix camera with maximum zoom and a 0.63× adapter. A more detailed analysis was performed with a confocal Bio-rad MRC 600 microscope (BIO-RAD Microscience Ltd., Hemel Hempstead, England), provided with an inverse optical microscope and an ×100 immersion lens. The bacteria were visualized by their fluorescence after excitation with a krypton/argon laser. Several sections of 0.1-0.2 μm bacteria were made.
Generally, the internalization of DPV is almost identical for the two bacterial strains that were studied.

[2] = tested on: Escherichia coli ATCC 25922; experiment: Internalization of DPV fluorescent conjugates in E. coli (epifluorescence microscopy); assay type: cell-based; details: tested as Bodipy conjugate, 1 μM, 30 minutes at 37° C., non-fixed bacteria
Description: as §1
The immobilized bacteria on a poly-L-Lysine slide were incubated with 1 μM of DPV-Bodipy conjugate for 30 minutes at 37° C.
The E. coli bacteria were incubated for 30 minutes at 37° C. with 1 μM of DPV-Bodipy conjugate, as described in paragraph I.8.a. The internalization of fluorescent DPV-Bodipy conjugates in the non-fixed bacteria was visualized under an epifluorescence microscope. […] With the DPV11 and DPV12 peptides (FIGS. 31 and 3J), heterogeneous fluorescence levels in one single bacterial population was obtained. The internalization properties of these peptides were weaker. […] (FIG. 3L).
The internalization of the DPV3 TMR conjugate was evaluated on E. coli bacteria immobilized on a poly-L-Lysine slide or in suspension. The bacteria were incubated with 1 μM of DPV3-TMR conjugate or the Cyst-TMR control for 30 minutes at 37° C., and then either fixed or not on the slide before visualization in an epifluorescence optical microscope.

[3] = tested on: Pseudomonas aeruginosa ATCC 27853; experiment: Internalization of DPV-Bodipy conjugates in P. aeruginosa (epifluorescence microscopy); assay type: cell-based; details: tested as Bodipy conjugate, 1 μM, 30 minutes at 37° C.
Description: as §1, with “A more detailed analysis was performed with a confocal Bio-rad MRC 600 microscope (BIO-RAD Microscience Ltd., Hemel Hempstead, England), provided with an inverse optical microscope and an ×100 immersion lens.” left out, “Several sections of 0.1-0.2 μm bacteria were made.” left out

P. aeruginosa = experiment: Confocal microscopy localization in P. aeruginosa; assay type: cell-based, Pseudomonas aeruginosa; details: 3 μM, 37° C., 30 mins., bacteria fixed
Description: as §1, with “A more detailed analysis was performed with a confocal Bio-rad MRC 600 microscope (BIO-RAD Microscience Ltd., Hemel Hempstead, England), provided with an inverse optical microscope and an ×100 immersion lens.” left out, “Several sections of 0.1-0.2 μm bacteria were made.” left out

E. coli ATCC 25922 = experiment: Chessboard method, DPV peptide and erythromycin, E. coli; assay type: cell-based, Escherichia coli; details: MH medium, 18 hours at 37° C.
Description: The dilution ranges were prepared according to a geometric progression of ration 2. 25 μl of the product solutions in MH medium with a concentration four times higher than the desired final concentration or 25 μl of the MH medium (for the lines 0), were distributed in the wells according to the chart below (Table 2), in order to obtain a final volume of 50 μl per well: An isolated colony of the bacterium E. coli ATCC 25922 or P. aeruginosa ATCC 27853 was placed in suspension in 3 to 5 ml of the MH culture medium and incubated at 37° C. for one night, while stirring. From this night culture, a culture in exponential growth phase of the strain was made; the MH medium was seeded at 1/50 é with the night culture and incubated for two hours at 37° C., while stirring. The bacterial concentration was adjusted to 5×10^5-10 s cfu/ml (colony-forming units) in the MH medium. […] The CMI was expressed in μg/ml (mg/1). […] An index below or equal to 0.5 indicates a synergy, an index above 2, an antagonism.

Row | Substance | Localization in the eukaryotic cells (eukaryotic cells) | Classification of DPVs: level of internalization [1] | Internalization in E. coli (description of FIG. 3) [2] | Internalization in P. aeruginosa compared with E. coli (FIG. 5) [3] | Localization of Bodipy conjugate in P. aeruginosa (confocal, FIG. 6) (P. aeruginosa) | CMI, product alone (E. coli ATCC 25922) | Internalization properties in the eukaryotic cell (eukaryotic cells) | Internalization properties in prokaryotic cells (Gram-negative bacteria) [1]
1 | Val Lys Arg Gly Leu Lys Leu Arg His Val Arg Pro Arg Val Thr Arg Met Asp Val (VKRGLKLRHVRPRVTRMDV; N-terminal Cys added; listed as Homo sapiens) [DPV1047] | nuclear localization peptides | weak internalization | – | – | – | – | – | –
2 | Gly Arg Pro Arg Glu Ser Gly Lys Lys Arg Lys Arg Lys Arg Leu Lys Pro (GRPRESGKKRKRKRLKP; C-terminal Cys; listed as Homo sapiens) [DPV6] | cytoplasmic localization peptides | medium internalization | highly penetrating | more internalizing in P. aeruginosa | – | – | – | –
3 | Gly Lys Arg Lys Lys Lys Gly Lys Leu Gly Lys Lys Arg Pro Arg Ser Arg (GKRKKKGKLGKKRPRSR; C-terminal Cys; listed as Homo sapiens) [DPV7b] | cytoplasmic localization peptides | medium internalization | – | more internalizing in P. aeruginosa than in E. coli | able to pass through the external membrane | – | – | –
4 | Gly Ala Tyr Asp Leu Arg Arg Arg Glu Arg Gin Ser Arg Leu Arg Arg Arg Glu Arg Gin Ser Arg (GAYDLRRRERQSRLRRRERQSR; N-terminal Cys; listed as Homo sapiens) [DPV15b] | nuclear localization peptides | weak internalization | – | – | – | – | – | –
5 | RKKRRRESRKKRRRES [DPV3] | cytoplasmic localization peptides | elevated internalization | highly penetrating | – | able to pass through the external membrane | 128 µg/mL | – | –
6 | Leu Arg Arg Glu Arg Gin Ser Arg Leu Arg Arg Glu Arg Gin Ser Arg (LRRERQSRLRRERQSR; C-terminal Cys; listed as Homo sapiens) [DPV15] | nuclear localization peptides | medium internalization | highly penetrating | – | – | – | – | –
7 | Val Lys Arg Gly Leu Lys Leu Arg Gin Lys Tyr Asn Lys Arg Ala Met Asp Tyr (VKRGLKLRQKYNKRAMDY; N-terminal Cys added; listed as Homo sapiens) [DPV1121] | nuclear localization peptides | weak internalization | – | – | – | – | – | –
8 | Asn Pro Gly Val Ser Thr Val Val Leu Gly Ala Tyr Asp Leu Arg Arg Arg Glu Arg Gin Ser Arg (NPGVSTVVLGAYDLRRRERQSR; N-terminal Cys; listed as Homo sapiens) [DPV19] | – | – | did not penetrate into the bacteria | – | – | – | do not have any internalization properties | same property
9 | Gly Lys Arg Lys Lys Lys Gly Lys Leu Gly Lys Lys Arg Asp Pro (GKRKKKGKLGKKRDP; C-terminal Cys; listed as Homo sapiens) [DPV7] | cytoplasmic localization peptides | medium internalization | – | – | – | – | – | –
10 | Ala Lys Thr Gly Lys Arg Lys Arg Ser Gly (AKTGKRKRSG; C-terminal Cys added; listed as Homo sapiens) [DPV11] | – | – | weaker | – | – | – | do not have any internalization properties | same property
11 | Gin Gly Lys Ser Lys Arg Glu Lys Lys Asp Arg Val Phe (QGKSKREKKDRVF; C-terminal Cys; listed as Homo sapiens) [DPV12] | – | – | weaker | – | – | – | do not have any internalization properties | same property
12 | Arg Lys Lys Arg Arg Arg Glu Ser Arg Arg Ala Arg Arg Ser Pro Arg His Leu (RKKRRRESRRARRSPRHL; C-terminal Cys; listed as Homo sapiens) [DPV3.10] | cytoplasmic localization peptides | elevated internalization | highly penetrating | – | – | – | – | –
